Results taken from ChEMBL document CHEMBL4028802, “DILIrank: the largest reference drug list ranked by the risk for developing drug-induced liver injury in humans” (Drug Discov Today, 2016).

What was measured:
Homo sapiens [1] = organism: Homo sapiens; assay: Liver toxicity in human assessed as induction of drug-induced liver injury by measuring severity class index
Homo sapiens [2] = organism: Homo sapiens; assay: Liver toxicity in human assessed as induction of drug-induced liver injury by measuring verified drug-induced liver injury concern status
Throughout, for DILI severity class: key of the grades not given here.

Substance | DILI_severity_class (Homo sapiens [1]) | DILI_Concern (Homo sapiens [2])
GALLIUM NITRATE | 3 | Ambiguous-Dili-Concern
H-SEEPPISLDLTFHLLREVLEMARAEQLAQQAHSNRKMLEII-OH | 0 | No-Dili-Concern
IVERMECTIN | 3 | Less-Dili-Concern
LANTHANUM CARBONATE | 0 | No-Dili-Concern
NYSTATIN | 0 | No-Dili-Concern
POLYMYXIN B SULFATE | 0 | No-Dili-Concern
SECRETIN | 0 | No-Dili-Concern
SEVELAMER | 0 | No-Dili-Concern
SIMETHICONE | 0 | No-Dili-Concern
VERTEPORFIN | 3 | Ambiguous-Dili-Concern
VITAMIN E | 0 | No-Dili-Concern
enfuvirtide | 3 | Ambiguous-Dili-Concern
